Data reported in ChEMBL document CHEMBL5715952 (Oncotarget, 2015).
pIC50: −log10 of the molar value.

Key:
[1] = Ratio of IC50 for inhibition of MET/VEGFR/Tie2 in human ANBL6 cells assessed as reduction of cell viability to IC50 for inhibition of MET/VEGFR/Tie2 in human ANBL6/BR resistant cells assessed as reduction of cell viability; details: condition multiple myeloma
[2] = Inhibition of MET/VEGFR/Tie2 in Melphalan Resistant human RPMI-8226 cells assessed as reduction of cell growth incubated for 72 hrs by CellTiter 96 aqueous one solution cell proliferation assay; type: cell-based; details: Melphalan-resistant RPMI-8226 cell
[3] = Inhibition of MET/VEGFR/Tie2 in bortezomib Resistant human RPMI-8226 cells assessed as reduction of cell growth incubated for 72 hrs by CellTiter 96 aqueous one solution cell proliferation assay; type: cell-based; details: Bortezomib-resistant RPMI-8226, 72 h
[4] = Inhibition of MET/VEGFR/Tie2 in human bortezomib-resistant ANBL6 cells assessed as reduction of cell growth incubated for 72 hrs by CellTiter 96 aqueous one solution cell proliferation assay; type: cell-based
[5] = Inhibition of MET/VEGFR/Tie2 in human RPMI-8226 cells assessed as reduction of cell growth incubated for 72 hrs by CellTiter 96 aqueous one solution cell proliferation assay; type: cell-based; details: RPMI-8226, 72 h
[6] = Ratio of IC50 for inhibition of MET/VEGFR/Tie2 in human RPMI-8226 cells assessed as reduction of cell viability to IC50 for inhibition of MET/VEGFR/Tie2 in human melphalan-resistant RPMI-8226 cells assessed as reduction of cell viability; details: time 72 hrs; condition multiple myeloma
[7] = Inhibition of MET/VEGFR/Tie2 in human ANBL-6 cells assessed as reduction of cell growth incubated for 72 hrs by CellTiter 96 aqueous one solution cell proliferation assay; type: cell-based; details: ANBL-6, 72 h
[8] = Inhibition of MET/VEGFR/Tie2 in human U-266 cells assessed as reduction of cell growth incubated for 72 hrs by CellTiter 96 aqueous one solution cell proliferation assay; type: cell-based; details: U-266, 72 h
[9] = Ratio of IC50 for inhibition of MET/VEGFR/Tie2 in human RPMI-8226 cells assessed as reduction of cell viability to IC50 for inhibition of MET/VEGFR/Tie2 in human RPMI-8226/BR resistant cells assessed as reduction of cell viability; details: condition multiple myeloma
[10] = Inhibition of MEK/MAPK in human bortezomib-resistant ANBL6 cells assessed as reduction of cell growth incubated for 72 hrs by CellTiter 96 aqueous one solution cell proliferation assay; type: cell-based
[11] = Inhibition of MEK/MAPK in human ANBL-6 cells assessed as reduction of cell growth incubated for 72 hrs by CellTiter 96 aqueous one solution cell proliferation assay; type: cell-based; details: ANBL-6, 72 h
[12] = Inhibition of MEK/MAPK in bortezomib Resistant human RPMI-8226 cells assessed as reduction of cell growth incubated for 72 hrs by CellTiter 96 aqueous one solution cell proliferation assay; type: cell-based; details: Bortezomib-resistant RPMI-8226, 72 h
[13] = Ratio of IC50 for inhibition of MEK/MAPK in human RPMI-8226 cells assessed as reduction of cell viability to IC50 for inhibition of MEK/MAPK in human melphalan-resistant RPMI-8226 cells assessed as reduction of cell viability; details: time 72 hrs; condition multiple myeloma
[14] = Inhibition of MEK/MAPK in melphalan-resistant human RPMI-8226 cells assessed as reduction of cell growth incubated for 72 hrs by CellTiter 96 aqueous one solution cell proliferation assay; type: cell-based; details: Melphalan-resistant RPMI-8226 cell
[15] = Inhibition of MEK/MAPK in human U-266 cells assessed as reduction of cell growth incubated for 72 hrs by CellTiter 96 aqueous one solution cell proliferation assay; type: cell-based; details: U-266, 72 h
[16] = Inhibition of MEK/MAPK in human RPMI-8226 cells assessed as reduction of cell growth incubated for 72 hrs by CellTiter 96 aqueous one solution cell proliferation assay; type: cell-based; details: RPMI-8226, 72 h
[17] = Ratio of IC50 for inhibition of MEK/MAPK in human RPMI-8226 cells assessed as reduction of cell viability to IC50 for inhibition of MEK/MAPK in human RPMI-8226/BR resistant cells assessed as reduction of cell viability; details: condition multiple myeloma
[18] = Ratio of IC50 for inhibition of MEK/MAPK in human ANBL6 cells assessed as reduction of cell viability to IC50 for inhibition of MEK/MAPK in human ANBL6/BR resistant cells assessed as reduction of cell viability; details: condition multiple myeloma
[19] = Ratio of IC50 for inhibition of PI3K/mTOR in human ANBL6 cells assessed as reduction of cell viability to IC50 for inhibition of PI3K/mTOR in human ANBL6/BR resistant cells assessed as reduction of cell viability; details: condition multiple myeloma
[20] = Ratio of IC50 for inhibition of PI3K/mTOR in human RPMI-8226 cells assessed as reduction of cell viability to IC50 for inhibition of PI3K/mTOR in human melphalan-resistant RPMI-8226 cells assessed as reduction of cell viability; details: time 72 hrs; condition multiple myeloma
[21] = cells; details: Homo sapiens, ANBL-6, 72 h
[22] = cells; details: Homo sapiens, Bortezomib-resistant RPMI-8226, 72 h
[23] = cells; details: Homo sapiens, Bortezomib-resistant ANBL6 cell, 72 h
[24] = cells; details: Homo sapiens, U-266, 72 h
[25] = Ratio of IC50 for inhibition of PI3K/mTOR in human RPMI-8226 cells assessed as reduction of cell viability to IC50 for inhibition of PI3K/mTOR in human RPMI-8226/BR resistant cells assessed as reduction of cell viability; details: condition multiple myeloma
[26] = cells; details: Homo sapiens, RPMI-8226, 72 h
[27] = cells; details: Homo sapiens, Melphalan-resistant RPMI-8226 cell, 72 h
[28] = Ratio of IC50 for inhibition of BCR-ABL/KIT/LCK/EPHA/DDR in human RPMI-8226 cells assessed as reduction of cell viability to IC50 for inhibition of BCR-ABL/KIT/LCK/EPHA/DDR in human melphalan-resistant RPMI-8226 cells assessed as reduction of cell viability; details: time 72 hrs; condition multiple myeloma
[29] = cells; details: Homo sapiens, U-266, 72 h; remark: listed apart in the source
[30] = cells; details: Homo sapiens, Bortezomib-resistant ANBL6 cell, 72 h; remark: listed apart in the source
[31] = cells; details: Homo sapiens, ANBL-6, 72 h; remark: listed apart in the source
[32] = cells; details: Homo sapiens, Melphalan-resistant RPMI-8226 cell, 72 h; remark: listed apart in the source
[33] = cells; details: Homo sapiens, Bortezomib-resistant RPMI-8226, 72 h; remark: listed apart in the source
[34] = Ratio of IC50 for inhibition of BCR-ABL/KIT/LCK/EPHA/DDR in human RPMI-8226 cells assessed as reduction of cell viability to IC50 for inhibition of BCR-ABL/KIT/LCK/EPHA/DDR in human RPMI-8226/BR resistant cells assessed as reduction of cell viability; details: condition multiple myeloma
[35] = Ratio of IC50 for inhibition of BCR-ABL/KIT/LCK/EPHA/DDR in human ANBL6 cells assessed as reduction of cell viability to IC50 for inhibition of BCR-ABL/KIT/LCK/EPHA/DDR in human ANBL6/BR resistant cells assessed as reduction of cell viability; details: condition multiple myeloma
[36] = cells; details: Homo sapiens, RPMI-8226, 72 h; remark: listed apart in the source

## Cn1cnc(-c2cc3nccc(Oc4ccc(NC(=S)NC(=O)Cc5ccccc5)cc4F)c3s2)c1
[1]
  Ratio IC50: 1.07
[2]
  pIC50: 5.00
[3]
  pIC50: 5.19
[4]
  pIC50: 5.03
[5]
  pIC50: 5.05
[6]
  Ratio IC50: 0.9
[7]
  pIC50: 5.00
[8]
  pIC50: 5.00
[9]
  Ratio IC50: 1.55

## O=C(NOCC1CC1)c1ccc(F)c(F)c1Nc1ccc(I)cc1Cl [CI-1040]
[10]
  pIC50: 5.00
[11]
  pIC50: 5.09
[12]
  pIC50: 5.12
[13]
  Ratio IC50: 0.6
[14]
  pIC50: 5.31
[15]
  pIC50: 5.29
[16]
  pIC50: 5.69
[17]
  Ratio IC50: 0.27
[18]
  Ratio IC50: 0.81

## Cn1c(=O)n(-c2ccc(C(C)(C)C#N)cc2)c2c3cc(-c4cnc5ccccc5c4)ccc3ncc21 [DACTOLISIB]
[19]
  Ratio IC50: 1.68
[20]
  Ratio IC50: 0.4
[21]
  pIC50: 7.08
[22]
  pIC50: 7.42
[23]
  pIC50: 7.31
[24]
  pIC50: 7.25
[25]
  Ratio IC50: 0.45
[26]
  pIC50: 7.76
[27]
  pIC50: 7.04

## Cc1cn(-c2cc(NC(=O)c3ccc(C)c(Nc4nccc(-c5cccnc5)n4)c3)cc(C(F)(F)F)c2)cn1 [NILOTINIB]
[28]
  Ratio IC50: 1
[29]
  pIC50: 5.00
[30]
  pIC50: 5.00
[31]
  pIC50: 5.00
[32]
  pIC50: 5.00
[33]
  pIC50: 5.00
[34]
  Ratio IC50: 1
[35]
  Ratio IC50: 1
[36]
  pIC50: 5.01
